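Assay format: 96-well plates, 48-hour exposure. The concentration for 50% growth inhibition is given as GI50. TGI is the concentration that stops growth completely.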
Key:
Assay in all cases: inhibition of tumour cell growth, NCI panel, 48 h
[1] = tested on: SK-MEL-5 melanoma
[2] = tested on: OVCAR-5 ovarian
[3] = tested on: T-47D breast
[4] = tested on: SF-539 CNS
[5] = tested on: M14 melanoma
[6] = tested on: MOLT-4 leukemia
[7] = tested on: SK-MEL-28 melanoma
[8] = tested on: LOX IMVI melanoma
[9] = tested on: K-562 leukemia
[10] = tested on: COLO 205 colon
[11] = tested on: HCC-2998 colon
[12] = tested on: SF-295 CNS
[13] = tested on: UO-31 renal
[14] = tested on: HT29 colon
[15] = tested on: NCI-H460 lung
[16] = tested on: IGROV1 ovarian
[17] = tested on: SNB-75 CNS
[18] = tested on: SK-MEL-2 melanoma
[19] = tested on: 786-0 renal
[20] = tested on: RPMI-8226 leukemia
[21] = tested on: HCT-15 colon
[22] = tested on: SR leukemia
[23] = tested on: MDA-MB-435
[24] = tested on: NCI-H226 lung
[25] = tested on: A549 NSCLC
[26] = tested on: ACHN renal
[27] = tested on: HS 578T breast
[28] = tested on: NCI-H23 lung
[29] = tested on: TK-10 renal
[30] = tested on: OVCAR-4 ovarian
[31] = tested on: SN12C renal
[32] = tested on: BT-549 breast
[33] = tested on: UACC-257 melanoma
[34] = tested on: OVCAR-3 ovarian
[35] = tested on: CAKI-1 renal
[36] = tested on: MDA-MB-231 breast
[37] = tested on: PC-3 prostate
[38] = tested on: MCF7 breast
[39] = tested on: HOP-62 NSCLC
[40] = tested on: CCRF-CEM leukemia
[41] = tested on: SNB-19 CNS
[42] = tested on: RXF 393 renal
[43] = tested on: HOP-92 NSCLC
[44] = tested on: NCI-H522 lung
[45] = tested on: SK-OV-3 ovarian
[46] = tested on: HL-60(TB) leukemia
[47] = tested on: A498 renal
[48] = tested on: SW-620 colon
[49] = tested on: NCI/ADR-RES ovarian
[50] = tested on: OVCAR-8 ovarian
[51] = tested on: MALME-3M melanoma
[52] = tested on: U251 CNS
[53] = tested on: KM12 colon
[54] = tested on: HCT-116 colon
[55] = tested on: SF-268 CNS
[56] = tested on: DU-145 prostate
[57] = tested on: UACC-62 melanoma
[58] = tested on: EKVX NSCLC

With Fc1ccc(-c2c(-c3ccncc3)n(CCN3CCOCC3)c3cccnc23)cc1 the GI50 [1] was over 25 µM, the TGI [1] was over 25 µM and the GI50 [2] was over 25 µM. For the same compound, the TGI [2] was over 25 µM, the GI50 [3] was over 25 µM and the TGI [3] was over 25 µM. It also gave a GI50 [4] of over 25 µM, a TGI [4] of over 25 µM and a GI50 [5] of over 25 µM. The TGI [5] was over 25 µM, the GI50 [6] was over 25 µM and the TGI [6] was over 25 µM. The GI50 [7] was over 25 µM, the TGI [7] was over 25 µM and the GI50 [8] was over 25 µM. The TGI [8] was over 25 µM, the GI50 [9] was over 25 µM and the TGI [9] was over 25 µM. For the same compound, the GI50 [10] was over 25 µM, the TGI [10] was over 25 µM and the GI50 [11] was over 25 µM. The TGI [11] was over 25 µM, the GI50 [12] was over 25 µM and the TGI [12] was over 25 µM. For the same compound, the GI50 [13] was over 5.79 µM, the TGI [13] was over 25 µM and the GI50 [14] was over 25 µM. For the same compound, the TGI [14] was over 25 µM, the GI50 [15] was over 25 µM and the TGI [15] was over 25 µM. For the same compound, the GI50 [16] was over 25 µM, the TGI [16] was over 25 µM and the GI50 [17] was over 25 µM. It also gave a TGI [17] of over 25 µM, a GI50 [18] of over 25 µM and a TGI [18] of over 25 µM. The GI50 [19] was over 25 µM, the TGI [19] was over 25 µM and the GI50 [20] was over 25 µM. It also gave a TGI [20] of over 25 µM, a GI50 [21] of over 25 µM and a TGI [21] of over 25 µM. It also gave a GI50 [22] of over 25 µM, a TGI [22] of over 25 µM and a GI50 [23] of over 25 µM. For the same compound, the TGI [23] was over 25 µM, the GI50 [24] was over 25 µM and the TGI [24] was over 25 µM. The GI50 [25] was over 25 µM, the TGI [25] was over 25 µM and the GI50 [26] was over 25 µM. For the same compound, the TGI [26] was over 25 µM, the GI50 [27] was over 25 µM and the TGI [27] was over 25 µM. The GI50 [28] was over 25 µM, the TGI [28] was over 25 µM and the GI50 [29] was over 25 µM. For the same compound, the TGI [29] was over 25 µM, the GI50 [30] was over 25 µM and the TGI [30] was over 25 µM. The GI50 [31] was over 25 µM, the TGI [31] was over 25 µM and the GI50 [32] was over 25 µM. It also gave a TGI [32] of over 25 µM, a GI50 [33] of over 25 µM and a TGI [33] of over 25 µM. The GI50 [34] was over 25 µM, the TGI [34] was over 25 µM and the GI50 [35] was over 25 µM. It also gave a TGI [35] of over 25 µM, a GI50 [36] of over 25 µM and a TGI [36] of over 25 µM. For the same compound, the GI50 [37] was over 25 µM, the TGI [37] was over 25 µM and the GI50 [38] was over 25 µM. It also gave a TGI [38] of over 25 µM, a GI50 [39] of over 25 µM and a TGI [39] of over 25 µM. It also gave a GI50 [40] of over 25 µM, a TGI [40] of over 25 µM and a GI50 [41] of over 25 µM. It also gave a TGI [41] of over 25 µM, a GI50 [42] of over 25 µM and a TGI [42] of over 25 µM. It also gave a GI50 [43] of 2.2 µM, a TGI [43] of over 25 µM and a GI50 [44] of over 25 µM. It also gave a TGI [44] of over 25 µM, a GI50 [45] of over 25 µM and a TGI [45] of over 25 µM. The GI50 [46] was over 25 µM, the TGI [46] was over 25 µM and the GI50 [47] was over 25 µM. For the same compound, the TGI [47] was over 25 µM, the GI50 [48] was over 25 µM and the TGI [48] was over 25 µM. It also gave a GI50 [49] of over 25 µM, a TGI [49] of over 25 µM and a GI50 [50] of over 25 µM. The TGI [50] was over 25 µM, the GI50 [51] was over 25 µM and the TGI [51] was over 25 µM. The GI50 [52] was over 25 µM, the TGI [52] was over 25 µM and the GI50 [53] was over 25 µM. It also gave a TGI [53] of over 25 µM, a GI50 [54] of over 25 µM and a TGI [54] of over 25 µM. It also gave a GI50 [55] of over 25 µM, a TGI [55] of over 25 µM and a GI50 [56] of over 25 µM. It also gave a TGI [56] of over 25 µM, a GI50 [57] of over 25 µM and a TGI [57] of over 25 µM.
Compound O=C(O)CCN1C(=O)/C(=C/C(Cl)=C/c2ccccc2)SC1=S has a GI50 [1] of 1.84 µM, a TGI [1] of 3.47 µM and a GI50 [2] of 2.77 µM. It also gave a TGI [2] of 6.8 µM, a GI50 [3] of 1.71 µM and a TGI [3] of 6.52 µM. For the same compound, the GI50 [4] was 2.67 µM, the TGI [4] was 7.12 µM and the GI50 [5] was 2.24 µM. It also gave a TGI [5] of 8.32 µM, a GI50 [6] of 1.98 µM and a TGI [6] of 8.12 µM. The GI50 [7] was 2.11 µM, the TGI [7] was 5.33 µM and the GI50 [8] was 1.5 µM. The TGI [8] was 3.04 µM, the GI50 [9] was 1.88 µM and the TGI [9] was 6.26 µM. The GI50 [10] was 2.86 µM, the TGI [10] was 6.71 µM and the GI50 [11] was 1.88 µM. The TGI [11] was 3.38 µM, the GI50 [12] was 2.7 µM and the TGI [12] was 8.05 µM. The GI50 [13] was 1.56 µM, the TGI [13] was 3.06 µM and the GI50 [14] was 2.57 µM. For the same compound, the TGI [14] was 5.88 µM, the GI50 [15] was 3.21 µM and the TGI [15] was 10.8 µM. The GI50 [16] was 2.42 µM, the TGI [16] was 6.98 µM and the GI50 [17] was 1.79 µM. The TGI [17] was 10.1 µM, the GI50 [18] was 2.16 µM and the TGI [18] was 6.27 µM. The GI50 [19] was 3.23 µM, the TGI [19] was 10.5 µM and the GI50 [21] was 1.77 µM. For the same compound, the TGI [21] was 6.82 µM, the GI50 [22] was 0.929 µM and the TGI [22] was 5.47 µM. It also gave a GI50 [23] of 2.95 µM, a TGI [23] of 11.6 µM and a GI50 [24] of 6.46 µM. It also gave a TGI [24] of 95.9 µM, a GI50 [25] of 3.52 µM and a TGI [25] of 15.1 µM. For the same compound, the GI50 [26] was 1.93 µM, the TGI [26] was 4.76 µM and the GI50 [27] was 3.18 µM. For the same compound, the TGI [27] was 17.3 µM, the GI50 [28] was 1.96 µM and the TGI [28] was 4.63 µM. It also gave a GI50 [29] of 4.19 µM, a TGI [29] of 9.59 µM and a GI50 [30] of 4.79 µM. For the same compound, the TGI [30] was 18 µM, the GI50 [31] was 2.67 µM and the TGI [31] was 9.41 µM. It also gave a GI50 [32] of 2.14 µM, a TGI [32] of 6.27 µM and a GI50 [33] of 1.96 µM. For the same compound, the TGI [33] was 7.81 µM, the GI50 [34] was 2.41 µM and the TGI [34] was 7.01 µM. It also gave a GI50 [35] of 2.2 µM, a TGI [35] of 5.62 µM and a GI50 [36] of 3.38 µM. The TGI [36] was 11 µM, the GI50 [37] was 2.87 µM and the TGI [37] was 11.4 µM. It also gave a GI50 [58] of 3.75 µM, a TGI [58] of 14.2 µM and a GI50 [38] of 1.98 µM. It also gave a TGI [38] of 13.1 µM, a GI50 [39] of 3.74 µM and a TGI [39] of 13.3 µM. For the same compound, the GI50 [40] was 1.87 µM, the TGI [40] was 8.25 µM and the GI50 [41] was 3.41 µM. For the same compound, the TGI [41] was 13.3 µM, the GI50 [42] was 1.69 µM and the TGI [42] was 3.38 µM. The GI50 [43] was 4.35 µM, the TGI [43] was 12.5 µM and the GI50 [44] was 2.07 µM. For the same compound, the TGI [44] was 5.66 µM, the GI50 [45] was 7.54 µM and the TGI [45] was 20.1 µM. For the same compound, the GI50 [46] was 1.85 µM, the TGI [46] was 7.64 µM and the GI50 [47] was 1.97 µM. It also gave a TGI [47] of 3.62 µM, a GI50 [48] of 2.3 µM and a TGI [48] of 6.32 µM. The GI50 [49] was 2.6 µM, the TGI [49] was 9.59 µM and the GI50 [50] was 3.27 µM. For the same compound, the TGI [50] was 22.2 µM, the GI50 [51] was 2.22 µM and the TGI [51] was 5.23 µM. For the same compound, the GI50 [52] was 1.66 µM, the TGI [52] was 3.16 µM and the GI50 [53] was 2.01 µM. It also gave a TGI [53] of 4.64 µM, a GI50 [54] of 1.82 µM and a TGI [54] of 5.06 µM. For the same compound, the GI50 [55] was 3.15 µM, the TGI [55] was 20.2 µM and the GI50 [56] was 3.14 µM. It also gave a TGI [56] of 12.4 µM, a GI50 [57] of 1.52 µM and a TGI [57] of 3.42 µM.

Source: PubChem BioAssay (NCI)
